These results are taken from patent US10987324B2, “Methods and compositions for the treatment of seizure-related disorders” (Adamas Pharmaceuticals, Inc., priority 2015, dated 2021).

The subject of data set [1] is motor coordination in rats. In words: Rotarod, ER profile vs IR profile of brivaracetam in rats (Example 16). It is filed as in vivo. As for the experimental part: The primary objective of this study is to compare the CNS side effects of brivaracetam when delivered as a continuous infusion to rats to simulate an extended release (ER) plasma profile or as a bolus to simulate an immediate release (IR) plasma profile. It is hypothesized that reducing the rate of rise of plasma concentrations with the ER profile compared to the IR profile results in reduced CNS impairment. CNS side effects are measured as an impairment of motor coordination in rodents using the rotarod. The rotarod (Ugo Basile, Italy) is a device that allows for quantitative measurement of motor coordination in rodents. Animals experiencing CNS side effects such as dizziness would fall off the rotarod faster than normal animals.
An acceleration protocol is used for training and test sessions, wherein the rotarod is accelerated from 0-40 rpm over a 5 minute session. All rats are then surgically implanted subcutaneously with programmable pumps (iPRECIO, Durect Corporation, Cupertino, Calif.), per the manufacturer's instructions, under anesthesia and using aseptic techniques.
Three days following pump implantation surgery, all rats are tested on the rotarod to obtain baseline performance values. […]
Animals that stay on the rotarod for the entire session are assigned a run-time of 300 seconds. The time that each animal stays on the rotarod prior to falling is automatically recorded. […]
For orientation: The rotarod test checks motor coordination on a turning rod.

Data set [2] in a line: Brivaracetam plasma pharmacokinetics, ER infusion vs IP bolus in rats (Example 16). It is filed as in vivo. The settings on record: PK satellite rats. As to the method: To reproduce the plasma profile of ER brivaracetam (ER profile, group 2), rats are administered brivaracetam as a continuous infusion into the intraperitoneal (IP) space. […] Control animals (group 1) are infused with vehicle using the same infusion protocol. […] Control animals (group 3) were implanted with pumps containing vehicle and were given an IP bolus of vehicle.
In order to fully elucidate the plasma concentration-time profile of brivaracetam administered by the ER and IR protocols, two groups of PK satellite rats are administered brivaracetam using identical protocols to groups 2 and 4 above to reproduce the ER and IR profiles, respectively. Blood is collected at varying time points and the plasma brivaracetam concentrations are determined. No rotarod testing is performed on the PK satellite rats.

For data set [3] the following is noted: cited from earlier work.

On to `CCC[C@@H]1CC(=O)N([C@@H](CC)C(N)=O)C1` [brivaracetam, (2S)-2-[(4R)-2-oxo-4-propylpyrrolidin-1-yl]butanamide], for which the “change from baseline in time on the rotarod vs vehicle” value in data set [1] (ER profile) was “not different between brivaracetam treated and vehicle animals”. Moreover, in data set [1] (IR profile, IP bolus), the “change in time on the rotarod vs vehicle” value is on record as “greater reduction in time on the rotarod than matched vehicle controls”. Also, the “rate of rise of plasma concentration, ER profile as % of IR profile” value in data set [2] is reported as < 10%. The “elimination / plasma / pharmacokinetic half-life” value in data set [3] (human) is 7 to 8 h. Also, the “fraction of dose unchanged in urine” value in data set [3] (in vivo) is given as 5-8%. Also, in data set [3] (oral dosing, human), the Tmax entry is recorded as “approximately 2 hours”.
